Patent US20240425464A1, “Substituted Monohydrazides as Potent Antifungal Agents” (University of Kentucky Research Foundation, priority 2023, published 2024)
Values after ≈ are worked out from the molar mass of the structure shown. Read-outs that look alike come from different tables or passages of the source.

Experiments:
[1] = system: A. fumigatus NRRL 6113 (S); assay: MIC determination by in vitro antifungal assay; format: cell-based, Aspergillus fumigatus; conditions: Aspergillus fumigatus, NRRL6113; strain S = A. fumigatus NRRL 6113; read-out: MIC
Procedure: (§1) 10 mg/mL stock solutions of compounds 1a-9j were prepared in dimethyl sulfoxide (DMSO) and were stored at −20° C. in the dark. The antifungal agent amphotericin B (AmB) was purchased from VWR (Radnor PA, USA). AmB was dissolved in DMSO at a final concentration of 5 mg/mL and was stored at −20° C., protected from light. Candida albicans American Type Culture Collection (ATCC) 10231 (strain A), C. albicans ATCC 64124 (B), and C. albicans ATCC MYA-2876 (C) were obtained from Utah State University. C. albicans ATCC 90819 (D), C. albicans ATCC MYA-2310 (E), C. albicans ATCC MYA-1237 (F), C. albicans ATCC MYA-1003 (G), Candida glabrata ATCC 2001 (H), Candida krusei ATCC 6258 (I), Candida parapsilosis ATCC 22019 (J), Cryptococcus neoformans ATCC MYA-895 (M), Aspergillus terreus ATCC MYA-3633 (N), and Aspergillus flavus ATCC MYA-3631 (0) were obtained from the American Type Culture Collection (ATCC; Manassas, VA, USA). Aspergillus nidulans ATCC 38163 (P) was obtained from University of Kentucky. Clinically derived Aspergillus fumigatus NRRL 163 (Q), A. fumigatus NRRL 5109 (R), and A. fumigatus NRRL 6113 (S) were obtained from Northern Regional Research Laboratory (NRRL). Candida auris 384 (K), C. auris 390 (L), and fungal strains 381-400 (including 10 C. auris (AR Bank #381-390), 3 Candida duobushaemulonii (AR Bank #391, AR Bank #392, and AR Bank #394), 2 Candida haemulonii (AR Bank #393 and AR Bank #395), 1 Kodameae ohmeri (AR Bank #396), 1 C. krusei (AR Bank #397), 1 Candida lusitaniae (AR Bank #398), and 2 Saccharomyces cerevisiae strains (AR Bank #399 and AR Bank #400)) were part of a larger fungal library from the AR Bank maintained by the Centers for Disease Control and Prevention (CDC; Atlanta, GA, USA). Filamentous fungi and yeasts were cultivated at 35° C. in RPMI 1640 medium (with L-glutamine, without sodium bicarbonate, Sigma-Aldrich, St. Louis, MO) buffered to a pH of 7.0 with 0.165 M morpholinepropanesulfonic acid (MOPS) buffer (Sigma-Aldrich). For cytotoxicity assays, HepG2 and the mouse macrophage cell line J774A.1 were obtained from University of Kentucky. The human embryonic kidney cell line, HEK-293, was bought from the ATCC. Mammalian cells were grown in Dulbecco's Modified Eagle's Medium (DMEM) (from VWR) with 10% fetal bovine serum (FBS) (from VWR) and 1% Pen/Strep (from ATCC). Cell lines were cultured at 37° C. with 5% CO2 and passaged by trypsinization with 0.05% trypsin: 0.53 mM EDTA (from Sigma-Aldrich).
(§2) The MIC values of compounds 1a-9j against yeast cells (strains A-P and 381-400) were determined in 96-well plates as described in the CLSI documents M27-A3 and M38-A2 with minor modifications.^2 A single colony of freshly prepared yeast cells was used to inoculate 5 mL of yeast extract peptone dextrose (YPD) broth prior to incubation overnight with shaking at 200 rpm at 35° C. From the actively growing yeast culture, 100 µL were then transferred to 900 μL of RPMI 1640 medium and re-adjusted to achieve OD600 of 0.12 (˜1×10^6 CFU/mL). The cell suspension was further diluted to achieve 1:100 in RPMI 1640 medium. 100 μL of cells were added to the wells of a 96-well microtiter plates that contained 100 µL of the compound solution to obtain concentrations of 0.06-31.3 μg/mL of compounds 1a-9j or AmB prior to incubation for 48 h at 35° C.
(§3) Finally, the activity of these monohydrazides was explored against […] non-Candida strains: Cryptococcus neoformans ATCC MYA-895 (M), Aspergillus terreus ATCC MYA-3633 (N), Aspergillus flavus ATCC MYA-3631 (O), Aspergillus nidulans ATCC 38163 (P), Aspergillus fumigatus NRRL 163 (Q), A. fumigatus NRRL 5109 (R), and A. fumigatus NRRL 6113 (S) (Tables 1A and 1B). The double dilution method was used with concentrations ranging from 0.06 to 31.3 j·tg mL^−1 for monohydrazides 1a-9j, and the commercially available positive antifungal control amphotericin B (AmB).

[2] = system: A. fumigatus NRRL 5109 (R); assay: MIC determination by in vitro antifungal assay; format: cell-based, Aspergillus fumigatus; conditions: Aspergillus fumigatus, NRRL5109; strain R = A. fumigatus NRRL 5109; read-out: MIC
Procedure: as §1, §2, §3

[3] = system: Aspergillus flavus ATCC MYA-3631 (O); assay: MIC determination by in vitro antifungal assay; format: cell-based; conditions: Aspergillus flavus; strain O = A. flavus ATCC MYA-3631; read-out: MIC
Procedure: as §1, §2, §3

[4] = system: Aspergillus nidulans ATCC 38163 (P); assay: MIC determination by in vitro antifungal assay; format: cell-based
Procedure: as §1, §2, §3

[5] = system: Aspergillus fumigatus NRRL 163 (Q); assay: MIC determination by in vitro antifungal assay; format: cell-based; conditions: Aspergillus fumigatus, NRRL163; strain Q = A. fumigatus NRRL 163; read-out: MIC
Procedure: as §1, §2, §3

[6] = system: Cryptococcus neoformans ATCC MYA-895 (M); assay: MIC determination by in vitro antifungal assay; format: cell-based; conditions: strain M = C. neoformans ATCC MYA-895
Procedure: as §1, §2, §3

[7] = system: C. albicans ATCC 10231 (strain A); assay: MIC determination by in vitro antifungal assay (CLSI broth dilution); format: cell-based, Candida albicans; conditions: strain A = C. albicans ATCC 10231, no visible growth, 48 h at 35° C.
Procedure: as §1
(§4) The MIC values of compounds 1a-9j against yeast cells (strains A-P and 381-400) were determined in 96-well plates as described in the CLSI documents M27-A3 and M38-A2 with minor modifications.^2 A single colony of freshly prepared yeast cells was used to inoculate 5 mL of yeast extract peptone dextrose (YPD) broth prior to incubation overnight with shaking at 200 rpm at 35° C. From the actively growing yeast culture, 100 µL were then transferred to 900 μL of RPMI 1640 medium and re-adjusted to achieve OD600 of 0.12 (˜1×10^6 CFU/mL). The cell suspension was further diluted to achieve 1:100 in RPMI 1640 medium. 100 μL of cells were added to the wells of a 96-well microtiter plates that contained 100 µL of the compound solution to obtain concentrations of 0.06-31.3 μg/mL of compounds 1a-9j or AmB prior to incubation for 48 h at 35° C. […]

[8] = system: Candida glabrata ATCC 2001 (H); assay: MIC determination by in vitro antifungal assay; format: cell-based; conditions: ATCC 2001 in text
Procedure: as §1, §4

[9] = system: C. albicans ATCC MYA-1237 (F); assay: MIC determination by in vitro antifungal assay; format: cell-based, Candida albicans; conditions: strain F = C. albicans ATCC MYA-1237(R)
Procedure: as §1, §4

[10] = system: C. albicans ATCC MYA-2876 (C); assay: MIC determination by in vitro antifungal assay; format: cell-based, Candida albicans; conditions: strain C = C. albicans ATCC MYA-2876(S)
Procedure: as §1, §4

[11] = system: C. albicans ATCC 90819 (D); assay: MIC determination by in vitro antifungal assay; format: cell-based, Candida albicans
Procedure: as §1, §4

[12] = Candida albicans, read-out: MIC

MIC [1]: > 31.3 µg/mL | MIC [2]: 31.3 µg/mL (≈ 95.4 µM) | MIC [3]: > 31.3 µg/mL | MIC ([4]; Aspergillus nidulans, ATCC38163, strain P = A. nidulans ATCC 38163, read-out: MIC): 3.9 µg/mL (≈ 11.9 µM) | MIC ([4]; strain P = A. nidulans ATCC 38163): 1.95 μg/mL^−1 | MIC [5]: > 31.3 µg/mL | MIC ([6]; Cryptococcus neoformans, read-out: MIC): 0.98 µg/mL (≈ 2.99 µM) | MIC [6]: 0.49 μg/mL^−1 | MIC ([7]; Candida albicans, ATCC10231, 48 h, read-out: MIC): 1.95 µg/mL (≈ 5.94 µM) | MIC [7]: 3.9 μg/mL^−1 | MIC ([8]; Nakaseomyces glabratus, ATCC 2001 / ATCC 2004, strain H = C. glabrata ATCC 2004 (footnote), read-out: MIC): 7.8 µg/mL (≈ 23.8 µM) | MIC ([8]; strain H = C. glabrata ATCC 2004 (footnote)): 15.6 μg/mL^−1 | MIC [9, 12]: 0.98 µg/mL (≈ 2.99 µM) | MIC [9]: 1.95 μg/mL^−1 | MIC [10, 12]: 0.49 µg/mL (≈ 1.49 µM) | MIC [10]: 0.98 μg/mL^−1 | MIC ([11]; Candida albicans, ATCC90819, strain D = C. albicans ATCC 90819(R), read-out: MIC): 1.95 µg/mL (≈ 5.94 µM) | MIC ([11]; strain D = C. albicans ATCC 90819(R)): 3.9 μg/mL^−1
Compound: O=C(NNc1ccc(F)cc1F)c1cccc(Br)n1 [Compound 6g]
